Tests used:
[1] = tested on: MDR S. typhimurium; experiment: Antibiotic IC50 measurement (Resazurin) in clinical isolates; type: cell-based, Salmonella typhimurium; conditions: 24 h growth
Experimental: Overnight cultures of clinical isolates were diluted to a 0.5 McFarland standard in CAMHB with respective test concentration of antibiotic. […] The slope of Resazurin fluorescence was used a quantitative measure of cell metabolism.

[2] = tested on: MDR E. coli; experiment: as above; type: cell-based, Escherichia coli; conditions: 24 h growth
Experimental: Overnight cultures of clinical isolates were diluted to a 0.5 McFarland standard in CAMHB with respective test concentration of antibiotic. Cultures were grown for 24 h at 37° C. with 225 rpm shaking. After 24 h of growth, Resazurin sodium salt (Sigma Aldrich) solution was added and the reaction was monitored for fluorescence measuring every 5 min for 4 h at 37° C. with 225 rpm shaking using 485/610 nm filters. The slope of Resazurin fluorescence was used a quantitative measure of cell metabolism. The IC50 was determined as the concentration of antibiotic which caused a 50% reduction in slope compared to the same biological replicate in no treatment.

[3] = tested on: ESBL K. pneumoniae; experiment: Combinatorial experiments CdTe-2.4 with antibiotic, growth (optical density); type: cell-based, Klebsiella pneumoniae; conditions: breakpoint amount of streptomycin, without CdTe-2.4
Experimental: Five antibiotic concentrations were selected for each strain, so that the levels tested would be below the IC50, near the CLSI or defined breakpoint, and near the IC50. Concentrations of CdTe-2.4 were held constant for all strains at 12.5 nM, 25 nM, and 50 nM. Using these metrics, three biological replicates were tested from each strain with 15 test conditions as well as monotherapy controls and a no treatment condition. Clinical strains were diluted 1:100 from overnight into test condition and grown at 37° C. with 225 rpm. Optical density was measured every 30 min for the first 3 h and every hour subsequently until 8 h. After 8 h of growth, Resazurin sodium salt solution was added and the reaction was monitored for fluorescence measuring every 5 min for 4 h at 37° C. with 225 rpm shaking using 485/610 nm filters. The slope of Resazurin fluorescence was used a quantitative measure of cell metabolism.

SMILES | sensitivity to antibiotic (IC50 versus CLSI or breakpoint) [1] | sensitivity to antibiotic (IC50 versus CLSI or breakpoint) [2] | effect of antibiotic alone on growth [3]
O=C(N[C@H](CO)[C@H](O)c1ccc([N+](=O)[O-])cc1)C(Cl)Cl [chloramphenicol] | sensitive | sensitive | 
[H]/N=C(/N)N[C@H]1[C@H](O)[C@@H](O)[C@H](O[C@@H]2O[C@@H](C)[C@](O)(C=O)[C@H]2O[C@@H]2O[C@@H](CO)[C@H](O)[C@@H](O)[C@@H]2NC)[C@@H](N/C(N)=N\[H])[C@@H]1O [streptomycin] |  |  | previously ineffective

From patent US10548979B2, “Light-activated compositions and methods using the same” (THE REGENTS OF THE UNIVERSITY OF COLORADO, A BODY CORPORATE, priority 2015, dated 2020)
